This is an account of results in patent US11759455B2, “Substituted 1H-imidazo[4,5-b]pyridin-2(3H)-ones and their use as GLUN2B receptor modulators” (JANSSEN PHARMACEUTICA NV, priority 2016, dated 2023).

The target of the assay is T1, human GluN1/GluN2B NMDA receptors (Homo sapiens, UniProt Q13224).
T1 construct: expressed in transfected cells
As to the kind of experiment: Cell-based calcium flux (FLIPR) assay on cloned human NR1/NR2B ion channels expressed in mammalian cells (standard and HTS buffer variants).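 Further: stable Tet-On inducible cell line, Ca2+ influx triggered by glutamate at about EC40 plus 10 µM glycine, fluorescent dye read-out over 5 min, normalized to control wells.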 In general terms: Calcium assays in cells follow changes in intracellular calcium, usually with a dye or a luminescent sensor.

[1] abbreviates: standard assay buffer (0.5 mM MgCl2 dye loading; 137 mM NaCl, 4 mM KCl assay buffer), human GluN1/GluN2B cells, read-out: NR2B IC50 (μM) standard assay.
[2] abbreviates: standard assay buffer (0.5 mM MgCl2 in dye loading buffer; 137 mM NaCl, 4 mM KCl in assay buffer), human GluN1/GluN2B, read-out: NR2B IC50 (μM) standard assay.

Like-named read-outs stand apart in the source and are kept apart here.

T1 sequence (Q13224 27-1484, other chains not shown): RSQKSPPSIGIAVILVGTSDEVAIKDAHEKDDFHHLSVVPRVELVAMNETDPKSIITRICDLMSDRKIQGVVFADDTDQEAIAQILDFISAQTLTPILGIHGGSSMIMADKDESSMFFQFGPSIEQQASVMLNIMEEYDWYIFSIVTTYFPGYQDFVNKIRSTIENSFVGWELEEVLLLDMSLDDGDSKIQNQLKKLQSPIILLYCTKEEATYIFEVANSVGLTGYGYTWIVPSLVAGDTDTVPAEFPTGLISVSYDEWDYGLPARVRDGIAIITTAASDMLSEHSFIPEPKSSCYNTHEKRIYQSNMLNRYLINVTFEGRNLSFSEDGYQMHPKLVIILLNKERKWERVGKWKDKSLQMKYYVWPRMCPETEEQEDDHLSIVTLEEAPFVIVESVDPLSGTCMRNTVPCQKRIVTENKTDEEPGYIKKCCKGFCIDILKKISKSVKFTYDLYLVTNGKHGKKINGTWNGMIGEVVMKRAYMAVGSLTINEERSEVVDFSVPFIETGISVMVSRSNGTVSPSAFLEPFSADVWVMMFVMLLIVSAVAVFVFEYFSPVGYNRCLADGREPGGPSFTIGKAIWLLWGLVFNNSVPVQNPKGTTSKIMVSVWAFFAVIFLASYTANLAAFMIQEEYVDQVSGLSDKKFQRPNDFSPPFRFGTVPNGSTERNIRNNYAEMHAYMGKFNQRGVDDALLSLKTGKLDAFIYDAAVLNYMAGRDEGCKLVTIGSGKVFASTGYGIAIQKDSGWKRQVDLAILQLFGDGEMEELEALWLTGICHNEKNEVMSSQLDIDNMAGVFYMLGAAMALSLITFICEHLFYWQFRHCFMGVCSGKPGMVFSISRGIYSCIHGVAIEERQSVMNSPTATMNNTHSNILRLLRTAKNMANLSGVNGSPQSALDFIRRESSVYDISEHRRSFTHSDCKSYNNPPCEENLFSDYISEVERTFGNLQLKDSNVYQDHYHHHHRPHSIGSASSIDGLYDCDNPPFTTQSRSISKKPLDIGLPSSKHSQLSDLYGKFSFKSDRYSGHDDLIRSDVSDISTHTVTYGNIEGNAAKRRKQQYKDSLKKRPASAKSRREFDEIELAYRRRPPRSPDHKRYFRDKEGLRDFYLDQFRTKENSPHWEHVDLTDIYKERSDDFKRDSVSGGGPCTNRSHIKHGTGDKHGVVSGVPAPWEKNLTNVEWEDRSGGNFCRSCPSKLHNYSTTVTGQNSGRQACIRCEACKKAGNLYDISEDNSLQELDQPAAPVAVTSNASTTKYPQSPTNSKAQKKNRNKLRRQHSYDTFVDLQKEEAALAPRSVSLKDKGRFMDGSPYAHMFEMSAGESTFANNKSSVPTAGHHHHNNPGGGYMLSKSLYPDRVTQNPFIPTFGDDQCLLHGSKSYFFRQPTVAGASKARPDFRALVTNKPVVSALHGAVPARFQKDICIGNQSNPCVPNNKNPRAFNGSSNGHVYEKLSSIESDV

In general, IC50 refers to the point on the concentration scale where inhibition reaches its midpoint. As to `Cc1cc(C)cc(-c2cnc3[nH]c(=O)n(CC(=O)NC4CC4)c3c2)c1` [Example 39, N-Cyclopropyl-2-[6-(3,5-dimethylphenyl)-2-oxo-3H-imidazo[4,5-b]pyridin-1-yl]acetamide], the IC50 (HTS assay buffer (1.5 mM MgCl2 dye loading; 150 mM NaCl, 3 mM KCl assay buffer), human GluN1/GluN2B cells, read-out: NR2B IC50 (μM) HTS assay) is 1.03 µM.
As to `O=C(Cn1c(=O)[nH]c2ncc(-c3cccc(C(F)(F)F)c3)cc21)N1CCC1` [Example 25, 1-[2-(Azetidin-1-yl)-2-oxo-ethyl]-6-[3-(trifluoromethyl)phenyl]-3H-imidazo[4,5-b]pyridin-2-one], the IC50 under setting [1] stood at 0.07 µM.
As for `Cc1cncc(Cn2c(=O)[nH]c3ncc(-c4ccc(F)c(F)c4)cc32)c1` [Example 272, 6-(3,4-Difluorophenyl)-1-[(5-methyl-3-pyridyl)methyl]-3H-imidazo[4,5-b]pyridin-2-one], the IC50 under setting [1] was found to be 0.034 µM.
For `Cc1c(-c2cnc3[nH]c(=O)n(CCN4CCC4)c3c2)cccc1C(F)(F)F` [Example 168, 1-[2-(Azetidin-1-yl)ethyl]-6-[2-methyl-3-(trifluoromethyl)phenyl]-3H-imidazo[4,5-b]pyridin-2-one], the IC50 under setting [1] worked out at 4.23 µM.
With `COc1cccc(-c2cnc3[nH]c(=O)n(CC(=O)c4cccs4)c3c2)c1` [Example 602, 6-(3-Methoxyphenyl)-1-[2-oxo-2-(2-thienyl)ethyl]-3H-imidazo[4,5-b]pyridin-2-one], the IC50 under setting [2] was 0.204 µM.
Regarding `Cn1c(=O)n(Cc2cccnc2)c2cc(-c3cccc(F)c3)cnc21` [Example 51, 6-(3-Fluorophenyl)-3-methyl-1-(3-pyridylmethyl)imidazo[4,5-b]pyridin-2-one], the IC50 under setting [1] is 22.6 µM.
Consider `CN(C)C(=O)Cn1c(=O)n(C)c2ncc(-c3ccc(F)c(OC(F)F)c3)cc21` [Example 587, 2-[6-[3-(Difluoromethoxy)-4-fluoro-phenyl]-3-methyl-2-oxo-imidazo[4,5-b]pyridin-1-yl]-N,N-dimethyl-acetamide], for which the IC50 under setting [2] was 0.035 µM.
Same read-out and setting: the same measure for `CC(C)(C)C(=O)Cn1c(=O)[nH]c2ncc(-c3cccc(C(F)(F)F)c3)cc21` [Example 611, 1-(3,3-Dimethyl-2-oxo-butyl)-6-[3-(trifluoromethyl)phenyl]-3H-imidazo[4,5-b]pyridin-2-one]: 0.204 µM.
With `O=c1[nH]c2ncc(-c3cccc(C(F)(F)F)c3)cc2n1CCN1CCCCC1` [Example 161, 1-[2-(1-Piperidyl)ethyl]-6-[3-(trifluoromethyl)phenyl]-3H-imidazo[4,5-b]pyridin-2-one], the IC50 under setting [1] was found to be 1.43 µM.
On to `COc1cc(F)ccc1-c1cnc2[nH]c(=O)n(Cc3ccccc3C#N)c2c1` [Example 490, 2-[[6-(4-Fluoro-2-methoxy-phenyl)-2-oxo-3H-imidazo[4,5-b]pyridin-1-yl]methyl]benzonitrile], for which the IC50 under setting [2] was found to be 0.046 µM.
`Cc1cncc(Cn2c(=O)[nH]c3ncc(-c4cccc(F)c4F)cc32)c1` [Example 310, 6-(2,3-Difluorophenyl)-1-[(5-methyl-3-pyridyl)methyl]-3H-imidazo[4,5-b]pyridin-2-one]: under setting [1], the IC50 stood at 0.088 µM.
For `Cc1cc(C)cc(-c2cnc3[nH]c(=O)n(CCN4CC(F)C4)c3c2)c1` [Example 183, 6-(3,5-Dimethylphenyl)-1-[2-(3-fluoroazetidin-1-yl)ethyl]-3H-imidazo[4,5-b]pyridin-2-one], under setting [1], the IC50 came out at 2.08 µM.
As to `COc1cccc(F)c1-c1cnc2[nH]c(=O)n(Cc3ccccc3C#N)c2c1` [Example 481, 2-[[6-(2-Fluoro-6-methoxy-phenyl)-2-oxo-3H-imidazo[4,5-b]pyridin-1-yl]methyl]benzonitrile], under setting [2], the IC50 was 2.25 µM.
Take `Cn1c(=O)n(CC(=O)N2CC(F)C2)c2cc(-c3cccc(C(F)(F)F)c3)cnc21` [Example 34, 1-[2-(3-Fluoroazetidin-1-yl)-2-oxo-ethyl]-3-methyl-6-[3-(trifluoromethyl)phenyl]imidazo[4,5-b]pyridin-2-one]: the IC50 under setting [1] stood at 0.065 µM.
Turning to `Cn1cc(Cn2c(=O)[nH]c3ncc(-c4ccc(F)cc4)cc32)cn1` [Example 15, 6-(4-Fluorophenyl)-1-[(1-methylpyrazol-4-yl)methyl]-3H-imidazo[4,5-b]pyridin-2-one], the IC50 under setting [1] was determined as 0.204 µM.
Turning to `Cc1cccnc1Cn1c(=O)[nH]c2ncc(-c3ccc(F)c(C)c3F)cc21` [Example 317, 6-(2,4-Difluoro-3-methyl-phenyl)-1-[(3-methyl-2-pyridyl)methyl]-3H-imidazo[4,5-b]pyridin-2-one], under setting [2], the IC50 is 0.046 µM.
Regarding `Cn1c(=O)n(Cc2ncccn2)c2cc(-c3ccc(F)c(F)c3)cnc21` [Example 64, 6-(3,4-Difluorophenyl)-3-methyl-1-(pyrimidin-2-ylmethyl)imidazo[4,5-b]pyridin-2-one], the IC50 under setting [1] came out at 3.59 µM.
Consider `Cc1c(F)ccc(-c2cnc3c(c2)n(CC(=O)N2CC(F)C2)c(=O)n3CF)c1F` [Example 600, 6-(2,4-Difluoro-3-methyl-phenyl)-1-[2-(3-fluoroazetidin-1-yl)-2-oxo-ethyl]-3-(fluoromethyl)imidazo[4,5-b]pyridin-2-one], for which the IC50 under setting [2] was found to be 0.017 µM.
Regarding `COc1ccc(-c2cnc3[nH]c(=O)n(CC4CC4)c3c2)cc1` [Example 471, 1-(Cyclopropylmethyl)-6-(4-methoxyphenyl)-3H-imidazo[4,5-b]pyridin-2-one], the IC50 under setting [2] was 1.8 µM.
With `Cc1cncc(Cn2c(=O)[nH]c3ncc(-c4cc(F)cc(F)c4)cc32)c1` [Example 311, 6-(3,5-Difluorophenyl)-1-[(5-methyl-3-pyridyl)methyl]-3H-imidazo[4,5-b]pyridin-2-one], the IC50 under setting [1] was determined as 0.028 µM.
In the case of `Cn1c(=O)n(Cc2cncc(Cl)c2)c2cc(-c3cc(F)c(F)c(F)c3)cnc21` [Example 370, 1-[(5-Chloro-3-pyridyl)methyl]-3-methyl-6-(3,4,5-trifluorophenyl)imidazo[4,5-b]pyridin-2-one], under setting [2], the IC50 worked out at 0.131 µM.
On to `O=C(Cn1c(=O)[nH]c2ncc(-c3cccc(C(F)(F)F)c3)cc21)c1nccs1` [Example 215, 1-(2-Oxo-2-thiazol-2-yl-ethyl)-6-[3-(trifluoromethyl)phenyl]-3H-imidazo[4,5-b]pyridin-2-one], for which the IC50 under setting [1] turned out to be 0.365 µM.
For the compound `COc1cccc(Cn2c(=O)[nH]c3ncc(-c4cc(C)cs4)cc32)c1` [Example 507, 1-[(3-Methoxyphenyl)methyl]-6-(4-methyl-2-thienyl)-3H-imidazo[4,5-b]pyridin-2-one], the IC50 (HTS assay buffer (1.5 mM MgCl2 in dye loading buffer; 150 mM NaCl, 3 mM KCl in assay buffer), human GluN1/GluN2B, read-out: NR2B IC50 (μM) HTS assay) turned out to be 8.1 µM.
As for `CCOc1ccccc1-c1cnc2[nH]c(=O)n(CC(=O)c3cccs3)c2c1` [Example 458, 6-(2-Ethoxyphenyl)-1-[2-oxo-2-(2-thienyl)ethyl]-3H-imidazo[4,5-b]pyridin-2-one], the IC50 under setting [2] is 0.135 µM.
Consider `Cc1cccnc1Cn1c(=O)[nH]c2ncc(-c3cccc(C(F)(F)F)c3)cc21` [Example 315, 1-[(3-Methyl-2-pyridyl)methyl]-6-[3-(trifluoromethyl)phenyl]-3H-imidazo[4,5-b]pyridin-2-one], for which, under setting [1], the half-inhibitory concentration (IC50) was more than 10 µM.
Consider `Cc1cccc(-c2cnc3c(c2)n(Cc2cccnc2)c(=O)n3C)c1` [Example 356, 3-Methyl-6-(m-tolyl)-1-(3-pyridylmethyl)imidazo[4,5-b]pyridin-2-one], for which the IC50 under setting [2] was 0.07 µM.
Consider `O=C(Cn1c(=O)[nH]c2ncc(-c3cc(F)cc(F)c3)cc21)NC1CC1` [Example 447, N-Cyclopropyl-2-[6-(3,5-difluorophenyl)-2-oxo-3H-imidazo[4,5-b]pyridin-1-yl]acetamide], for which the IC50 under setting [2] is 0.184 µM.
